According to ChEMBL document CHEMBL4507291 (2021):

What was measured:
[1] = biological target: Mitogen-activated protein kinase 11 (Homo sapiens) (UniProt Q15759)
[2] = biological target: Vascular endothelial growth factor receptor 3 (Homo sapiens) (UniProt P35916)
[3] = biological target: T1, Mitogen-activated protein kinase kinase kinase 3 (Homo sapiens) (UniProt Q99759)
T1 sequence (whole entry): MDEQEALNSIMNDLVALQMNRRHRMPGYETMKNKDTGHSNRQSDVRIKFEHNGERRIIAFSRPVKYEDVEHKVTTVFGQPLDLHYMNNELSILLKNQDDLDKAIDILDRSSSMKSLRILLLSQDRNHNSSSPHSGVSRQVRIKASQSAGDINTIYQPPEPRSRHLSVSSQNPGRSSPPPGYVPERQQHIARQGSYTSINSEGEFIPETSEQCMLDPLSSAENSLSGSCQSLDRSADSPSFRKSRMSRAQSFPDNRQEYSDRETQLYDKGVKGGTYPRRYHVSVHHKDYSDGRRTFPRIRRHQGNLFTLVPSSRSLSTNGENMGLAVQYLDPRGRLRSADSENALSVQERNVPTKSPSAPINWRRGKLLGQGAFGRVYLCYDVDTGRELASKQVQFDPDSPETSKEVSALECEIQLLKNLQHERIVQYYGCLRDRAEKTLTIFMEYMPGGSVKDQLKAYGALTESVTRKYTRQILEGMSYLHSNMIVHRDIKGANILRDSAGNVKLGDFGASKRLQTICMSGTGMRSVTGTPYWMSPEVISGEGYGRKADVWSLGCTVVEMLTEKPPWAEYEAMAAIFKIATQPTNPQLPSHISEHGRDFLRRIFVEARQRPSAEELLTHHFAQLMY

[4] = biological target: T2, Ephrin type-B receptor 4 (Homo sapiens) (UniProt P54760)
T2 sequence (whole entry): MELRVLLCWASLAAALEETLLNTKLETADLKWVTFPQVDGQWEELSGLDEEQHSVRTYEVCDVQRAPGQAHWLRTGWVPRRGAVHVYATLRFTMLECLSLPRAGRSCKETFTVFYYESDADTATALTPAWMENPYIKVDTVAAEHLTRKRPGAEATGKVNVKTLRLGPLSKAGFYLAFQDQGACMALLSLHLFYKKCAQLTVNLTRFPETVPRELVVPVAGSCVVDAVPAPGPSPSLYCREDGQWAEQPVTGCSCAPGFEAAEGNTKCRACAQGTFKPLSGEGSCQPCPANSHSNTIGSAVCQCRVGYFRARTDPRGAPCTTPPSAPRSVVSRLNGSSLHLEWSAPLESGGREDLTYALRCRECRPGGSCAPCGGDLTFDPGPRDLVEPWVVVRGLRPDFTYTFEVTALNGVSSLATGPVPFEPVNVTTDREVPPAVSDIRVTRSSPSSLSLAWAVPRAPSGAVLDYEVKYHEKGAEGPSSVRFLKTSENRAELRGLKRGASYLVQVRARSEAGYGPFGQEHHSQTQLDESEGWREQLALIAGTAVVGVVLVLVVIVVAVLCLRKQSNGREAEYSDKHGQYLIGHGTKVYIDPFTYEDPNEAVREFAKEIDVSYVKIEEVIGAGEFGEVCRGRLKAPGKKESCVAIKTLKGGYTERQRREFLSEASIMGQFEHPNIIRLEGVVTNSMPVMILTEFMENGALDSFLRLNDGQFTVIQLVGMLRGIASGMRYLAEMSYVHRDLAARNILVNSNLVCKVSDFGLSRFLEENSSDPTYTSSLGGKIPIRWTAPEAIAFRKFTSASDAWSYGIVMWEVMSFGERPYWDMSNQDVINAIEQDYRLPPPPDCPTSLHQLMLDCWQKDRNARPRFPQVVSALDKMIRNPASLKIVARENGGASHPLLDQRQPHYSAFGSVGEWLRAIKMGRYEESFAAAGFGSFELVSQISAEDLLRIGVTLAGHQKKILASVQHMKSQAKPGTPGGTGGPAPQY

[5] = biological target: Calcium/calmodulin-dependent protein kinase type 1 (Homo sapiens) (UniProt Q14012)
Chain of Calcium/calmodulin-dependent protein kinase type 1 (Homo sapiens) (Q14012 whole entry, looked up): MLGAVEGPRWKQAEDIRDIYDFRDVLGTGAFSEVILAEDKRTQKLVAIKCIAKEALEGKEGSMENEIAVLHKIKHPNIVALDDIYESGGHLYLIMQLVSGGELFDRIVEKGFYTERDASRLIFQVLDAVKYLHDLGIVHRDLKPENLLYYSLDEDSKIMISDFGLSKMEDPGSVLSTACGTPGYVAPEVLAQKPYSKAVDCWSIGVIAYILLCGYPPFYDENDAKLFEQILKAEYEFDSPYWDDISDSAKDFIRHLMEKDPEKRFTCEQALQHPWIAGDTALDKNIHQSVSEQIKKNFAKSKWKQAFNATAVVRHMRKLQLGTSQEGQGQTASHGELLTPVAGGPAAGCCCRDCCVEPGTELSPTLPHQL

[6] = biological target: Protein kinase C theta type (Homo sapiens) (UniProt Q04759)
[7] = biological target: Serine/threonine-protein kinase 35 (Homo sapiens) (UniProt Q8TDR2)
[8] = biological target: Cyclin-dependent kinase-like 1 (Homo sapiens) (UniProt Q00532)
Chain of Cyclin-dependent kinase-like 1 (Homo sapiens) (Q00532 whole entry): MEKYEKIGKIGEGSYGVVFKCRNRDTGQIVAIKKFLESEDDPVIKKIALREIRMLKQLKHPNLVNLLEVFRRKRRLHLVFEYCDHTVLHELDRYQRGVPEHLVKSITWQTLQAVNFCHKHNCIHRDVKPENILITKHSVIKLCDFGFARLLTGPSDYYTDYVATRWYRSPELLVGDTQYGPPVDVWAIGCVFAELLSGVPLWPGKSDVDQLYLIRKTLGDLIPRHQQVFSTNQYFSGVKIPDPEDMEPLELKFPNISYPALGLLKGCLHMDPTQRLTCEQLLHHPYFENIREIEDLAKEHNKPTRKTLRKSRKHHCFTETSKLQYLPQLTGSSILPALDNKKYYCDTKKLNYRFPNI

[9] = biological target: Serine/threonine-protein kinase 36 (Homo sapiens) (UniProt Q9NRP7)
Chain of Serine/threonine-protein kinase 36 (Homo sapiens) (Q9NRP7 whole entry): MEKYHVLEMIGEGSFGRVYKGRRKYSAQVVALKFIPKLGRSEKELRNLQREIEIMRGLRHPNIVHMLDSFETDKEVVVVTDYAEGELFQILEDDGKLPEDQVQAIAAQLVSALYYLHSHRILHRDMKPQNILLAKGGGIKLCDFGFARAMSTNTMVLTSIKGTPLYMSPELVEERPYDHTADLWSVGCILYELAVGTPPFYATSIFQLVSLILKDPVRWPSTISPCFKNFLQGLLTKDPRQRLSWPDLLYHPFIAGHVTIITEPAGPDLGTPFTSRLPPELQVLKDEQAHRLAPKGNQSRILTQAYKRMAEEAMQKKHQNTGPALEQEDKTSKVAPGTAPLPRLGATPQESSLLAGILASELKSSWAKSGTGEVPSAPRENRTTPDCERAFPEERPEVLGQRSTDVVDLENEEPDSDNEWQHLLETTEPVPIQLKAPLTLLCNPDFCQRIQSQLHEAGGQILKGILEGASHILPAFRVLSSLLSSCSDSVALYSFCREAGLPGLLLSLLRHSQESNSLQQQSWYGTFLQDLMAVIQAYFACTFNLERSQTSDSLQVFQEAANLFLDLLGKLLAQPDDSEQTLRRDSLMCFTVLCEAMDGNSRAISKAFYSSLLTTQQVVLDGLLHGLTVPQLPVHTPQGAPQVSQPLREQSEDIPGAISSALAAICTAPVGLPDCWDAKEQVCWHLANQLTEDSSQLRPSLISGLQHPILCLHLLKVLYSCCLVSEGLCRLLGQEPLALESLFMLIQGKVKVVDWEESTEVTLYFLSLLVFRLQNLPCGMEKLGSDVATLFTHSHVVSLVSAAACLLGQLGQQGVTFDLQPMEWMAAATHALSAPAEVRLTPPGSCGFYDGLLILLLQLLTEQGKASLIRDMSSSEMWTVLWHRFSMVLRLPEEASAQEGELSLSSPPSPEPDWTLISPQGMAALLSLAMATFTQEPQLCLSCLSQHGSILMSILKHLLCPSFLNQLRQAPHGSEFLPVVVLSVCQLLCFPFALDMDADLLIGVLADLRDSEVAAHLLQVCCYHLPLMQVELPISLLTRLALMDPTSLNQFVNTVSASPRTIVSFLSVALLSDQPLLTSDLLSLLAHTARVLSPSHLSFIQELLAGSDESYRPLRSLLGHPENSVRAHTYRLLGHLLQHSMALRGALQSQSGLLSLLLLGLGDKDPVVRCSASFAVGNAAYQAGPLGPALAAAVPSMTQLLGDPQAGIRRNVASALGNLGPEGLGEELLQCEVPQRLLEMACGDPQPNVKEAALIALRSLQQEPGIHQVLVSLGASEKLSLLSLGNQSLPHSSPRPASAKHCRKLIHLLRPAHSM

[10] = biological target: Serine/threonine-protein kinase WNK2 (Homo sapiens) (UniProt Q9Y3S1)
[11] = biological target: Calcium/calmodulin-dependent protein kinase type II subunit beta (Homo sapiens) (UniProt Q13554)
Chain of Calcium/calmodulin-dependent protein kinase type II subunit beta (Homo sapiens) (Q13554 whole entry): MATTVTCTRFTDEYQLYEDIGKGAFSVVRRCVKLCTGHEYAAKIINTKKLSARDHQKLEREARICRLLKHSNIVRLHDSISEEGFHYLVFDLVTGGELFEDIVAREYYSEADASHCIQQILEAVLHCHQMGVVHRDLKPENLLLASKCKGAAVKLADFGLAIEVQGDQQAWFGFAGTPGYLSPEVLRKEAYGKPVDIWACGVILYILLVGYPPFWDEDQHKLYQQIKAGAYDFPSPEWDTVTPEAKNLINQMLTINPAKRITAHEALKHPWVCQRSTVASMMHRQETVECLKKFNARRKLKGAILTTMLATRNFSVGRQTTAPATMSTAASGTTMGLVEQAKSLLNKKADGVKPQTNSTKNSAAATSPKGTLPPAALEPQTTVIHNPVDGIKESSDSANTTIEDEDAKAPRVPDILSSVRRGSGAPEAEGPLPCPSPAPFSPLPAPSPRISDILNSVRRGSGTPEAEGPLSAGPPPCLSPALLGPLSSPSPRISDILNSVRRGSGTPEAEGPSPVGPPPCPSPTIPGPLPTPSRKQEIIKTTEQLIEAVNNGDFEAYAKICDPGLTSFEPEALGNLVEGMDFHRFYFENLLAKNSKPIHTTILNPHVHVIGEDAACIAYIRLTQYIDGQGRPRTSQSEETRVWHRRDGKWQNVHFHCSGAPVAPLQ

[12] = biological target: Insulin-like growth factor 1 receptor (Homo sapiens) (UniProt P08069)
[13] = biological target: T3, Muscarinic acetylcholine receptor M5 (Homo sapiens) (UniProt P08912); conditions: Compound concentration 10.0 uM
T3 sequence (whole entry): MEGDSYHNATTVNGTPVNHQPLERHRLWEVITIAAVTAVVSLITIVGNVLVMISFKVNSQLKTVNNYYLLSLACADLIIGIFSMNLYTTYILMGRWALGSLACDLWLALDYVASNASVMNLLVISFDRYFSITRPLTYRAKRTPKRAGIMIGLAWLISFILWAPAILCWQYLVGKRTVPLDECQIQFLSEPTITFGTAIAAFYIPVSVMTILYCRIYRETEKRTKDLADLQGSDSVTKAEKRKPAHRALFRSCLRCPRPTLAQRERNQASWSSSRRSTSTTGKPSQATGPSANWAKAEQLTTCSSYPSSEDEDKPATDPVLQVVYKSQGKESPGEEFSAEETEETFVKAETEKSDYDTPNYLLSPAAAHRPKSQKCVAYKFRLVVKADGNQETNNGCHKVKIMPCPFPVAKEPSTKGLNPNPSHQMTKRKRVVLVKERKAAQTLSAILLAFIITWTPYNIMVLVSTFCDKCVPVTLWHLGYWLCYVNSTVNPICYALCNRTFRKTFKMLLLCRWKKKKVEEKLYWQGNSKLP

[14] = biological target: Serine/threonine-protein kinase OSR1 (Homo sapiens) (UniProt O95747)
[15] = biological target: Cyclin-dependent kinase-like 2 (Homo sapiens) (UniProt Q92772)
Chain of Cyclin-dependent kinase-like 2 (Homo sapiens) (Q92772 whole entry): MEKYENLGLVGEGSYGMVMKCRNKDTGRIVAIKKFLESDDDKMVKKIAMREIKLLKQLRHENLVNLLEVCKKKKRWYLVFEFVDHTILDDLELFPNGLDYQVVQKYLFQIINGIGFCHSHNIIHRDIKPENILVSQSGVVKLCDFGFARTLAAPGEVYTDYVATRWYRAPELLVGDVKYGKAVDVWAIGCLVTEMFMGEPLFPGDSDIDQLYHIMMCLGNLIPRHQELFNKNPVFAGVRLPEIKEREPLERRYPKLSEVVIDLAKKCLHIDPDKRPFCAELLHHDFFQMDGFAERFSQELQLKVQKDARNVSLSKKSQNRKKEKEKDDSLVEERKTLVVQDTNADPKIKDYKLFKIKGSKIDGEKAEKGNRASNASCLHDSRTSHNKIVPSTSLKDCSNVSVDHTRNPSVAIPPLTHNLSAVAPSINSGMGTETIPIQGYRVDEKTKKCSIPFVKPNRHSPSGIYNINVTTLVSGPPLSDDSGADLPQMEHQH

[16] = biological target: Serine/threonine-protein kinase WNK1 (Homo sapiens) (UniProt Q9H4A3)
[17] = Compound concentration 100.0 nM
[18] = Compound concentration 1000.0 nM

Chain of Vascular endothelial growth factor receptor 3 (Homo sapiens) (P35916 whole entry): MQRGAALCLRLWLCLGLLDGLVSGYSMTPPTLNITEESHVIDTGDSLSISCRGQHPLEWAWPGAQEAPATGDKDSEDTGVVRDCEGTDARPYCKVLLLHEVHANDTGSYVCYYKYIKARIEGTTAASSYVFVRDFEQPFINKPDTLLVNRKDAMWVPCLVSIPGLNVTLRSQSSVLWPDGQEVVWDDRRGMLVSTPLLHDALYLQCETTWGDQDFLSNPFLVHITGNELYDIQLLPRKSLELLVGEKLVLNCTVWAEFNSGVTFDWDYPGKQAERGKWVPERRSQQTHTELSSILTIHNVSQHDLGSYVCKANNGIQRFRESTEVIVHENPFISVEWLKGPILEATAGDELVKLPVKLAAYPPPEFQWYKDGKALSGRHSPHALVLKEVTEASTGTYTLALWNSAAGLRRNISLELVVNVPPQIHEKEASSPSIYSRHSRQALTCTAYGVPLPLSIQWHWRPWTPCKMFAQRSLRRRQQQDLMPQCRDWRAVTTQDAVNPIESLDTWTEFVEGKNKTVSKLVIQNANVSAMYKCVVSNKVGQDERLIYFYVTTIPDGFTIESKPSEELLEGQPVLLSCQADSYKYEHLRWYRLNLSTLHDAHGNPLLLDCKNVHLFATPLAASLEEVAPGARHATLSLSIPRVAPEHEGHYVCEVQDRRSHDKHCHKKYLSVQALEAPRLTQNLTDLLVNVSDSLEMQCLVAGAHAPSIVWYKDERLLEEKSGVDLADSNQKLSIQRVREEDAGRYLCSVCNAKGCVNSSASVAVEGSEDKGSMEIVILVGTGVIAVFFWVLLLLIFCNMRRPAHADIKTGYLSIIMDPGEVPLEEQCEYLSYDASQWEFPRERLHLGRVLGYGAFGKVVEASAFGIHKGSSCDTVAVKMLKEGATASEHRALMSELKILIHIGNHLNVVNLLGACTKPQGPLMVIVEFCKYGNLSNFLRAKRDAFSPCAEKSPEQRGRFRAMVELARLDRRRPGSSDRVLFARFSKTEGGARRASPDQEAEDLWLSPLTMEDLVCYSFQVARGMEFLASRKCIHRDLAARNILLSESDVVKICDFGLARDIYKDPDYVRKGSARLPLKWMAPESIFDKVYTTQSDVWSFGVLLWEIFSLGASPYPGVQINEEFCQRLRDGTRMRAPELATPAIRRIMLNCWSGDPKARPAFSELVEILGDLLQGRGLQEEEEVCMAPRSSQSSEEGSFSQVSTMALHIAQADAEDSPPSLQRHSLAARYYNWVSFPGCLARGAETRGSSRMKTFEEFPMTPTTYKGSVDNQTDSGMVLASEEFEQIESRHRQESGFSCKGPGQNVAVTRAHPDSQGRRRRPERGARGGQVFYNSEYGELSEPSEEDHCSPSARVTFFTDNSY
Chain of Mitogen-activated protein kinase 11 (Homo sapiens) (Q15759 whole entry): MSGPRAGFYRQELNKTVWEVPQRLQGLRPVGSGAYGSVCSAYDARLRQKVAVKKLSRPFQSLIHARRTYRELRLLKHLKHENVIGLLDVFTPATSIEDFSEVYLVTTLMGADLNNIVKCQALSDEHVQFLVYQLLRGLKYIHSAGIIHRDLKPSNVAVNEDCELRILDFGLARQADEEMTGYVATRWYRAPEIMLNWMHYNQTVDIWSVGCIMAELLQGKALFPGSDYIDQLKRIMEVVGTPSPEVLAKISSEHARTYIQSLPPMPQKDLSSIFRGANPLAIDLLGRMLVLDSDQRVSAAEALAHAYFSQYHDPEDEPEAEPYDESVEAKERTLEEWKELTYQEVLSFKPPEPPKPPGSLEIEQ

C[C@@H]1CN(c2cc(-c3n[nH]c4ccc(OC5(C)CC5)cc34)ncn2)C[C@H](C)O1 [MLi-2]
inactive: residual activity [1, 17] 89% | residual activity [2, 17] 100% | residual activity [3, 17] 64% | residual activity [4, 17] 79% | residual activity [5, 17] 100% | residual activity [6, 17] 74% | residual activity [7, 17] 85% | residual activity [8, 17] 89% | residual activity [9, 17] 86% | residual activity [10, 17] 84% | residual activity [11, 17] 100% | residual activity [12, 17] 100% | inhibition [13] 1% | residual activity [14, 17] 72% | residual activity [15, 17] 100% | residual activity [16, 17] 89%

C[C@@H]1CN(c2cc(-c3nn(C)c4ccc(OC5(C)CC5)cc34)ncn2)C[C@H](C)O1 [MLi-2-NC]
inactive: residual activity [1, 18] 88% | residual activity [2, 18] 85% | residual activity [3, 18] 90% | residual activity [4, 18] 100% | residual activity [5, 18] 100% | residual activity [6, 18] 91% | residual activity [7, 18] 100% | residual activity [8, 18] 89% | residual activity [9, 18] 93% | residual activity [10, 18] 63% | residual activity [11, 18] 96% | residual activity [12, 18] 100% | inhibition [13] 2.87% | residual activity [14, 18] 93% | residual activity [15, 18] 100% | residual activity [16, 18] 82%
